Assay results as given in PubChem BioAssay (NCI).
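Assay format: 96-well plates, 48-hour exposure. Here, GI50 denotes the concentration required for 50% inhibition of growth. TGI: concentration producing complete growth inhibition.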

What was measured:
Assay in all cases: inhibition of tumour cell growth, NCI panel, 48 h
MDA-MB-435 = system: MDA-MB-435
SK-OV-3 ovarian = system: SK-OV-3 ovarian
HS 578T breast = system: HS 578T breast
BT-549 breast = system: BT-549 breast
RPMI-8226 leukemia = system: RPMI-8226 leukemia
UACC-257 melanoma = system: UACC-257 melanoma
IGROV1 ovarian = system: IGROV1 ovarian
U251 CNS = system: U251 CNS
MCF7 breast = system: MCF7 breast
EKVX NSCLC = system: EKVX NSCLC
KM12 colon = system: KM12 colon
MOLT-4 leukemia = system: MOLT-4 leukemia
TK-10 renal = system: TK-10 renal
OVCAR-3 ovarian = system: OVCAR-3 ovarian
SR leukemia = system: SR leukemia
COLO 205 colon = system: COLO 205 colon
NCI/ADR-RES ovarian = system: NCI/ADR-RES ovarian
HT29 colon = system: HT29 colon
SK-MEL-2 melanoma = system: SK-MEL-2 melanoma
UO-31 renal = system: UO-31 renal
SN12C renal = system: SN12C renal
HL-60(TB) leukemia = system: HL-60(TB) leukemia
OVCAR-4 ovarian = system: OVCAR-4 ovarian
HOP-92 NSCLC = system: HOP-92 NSCLC
SNB-19 CNS = system: SNB-19 CNS
786-0 renal = system: 786-0 renal
SK-MEL-28 melanoma = system: SK-MEL-28 melanoma
HCC-2998 colon = system: HCC-2998 colon
HCT-15 colon = system: HCT-15 colon
RXF 393 renal = system: RXF 393 renal
SF-539 CNS = system: SF-539 CNS
HOP-62 NSCLC = system: HOP-62 NSCLC
CAKI-1 renal = system: CAKI-1 renal
PC-3 prostate = system: PC-3 prostate
ACHN renal = system: ACHN renal
DU-145 prostate = system: DU-145 prostate
SK-MEL-5 melanoma = system: SK-MEL-5 melanoma
NCI-H23 lung = system: NCI-H23 lung
SNB-75 CNS = system: SNB-75 CNS
T-47D breast = system: T-47D breast
MALME-3M melanoma = system: MALME-3M melanoma
K-562 leukemia = system: K-562 leukemia
OVCAR-5 ovarian = system: OVCAR-5 ovarian
LOX IMVI melanoma = system: LOX IMVI melanoma
SW-620 colon = system: SW-620 colon
SF-295 CNS = system: SF-295 CNS
M14 melanoma = system: M14 melanoma
NCI-H226 lung = system: NCI-H226 lung
UACC-62 melanoma = system: UACC-62 melanoma
MDA-MB-231 breast = system: MDA-MB-231 breast
CCRF-CEM leukemia = system: CCRF-CEM leukemia
OVCAR-8 ovarian = system: OVCAR-8 ovarian
HCT-116 colon = system: HCT-116 colon
NCI-H522 lung = system: NCI-H522 lung
A549 NSCLC = system: A549 NSCLC
NCI-H460 lung = system: NCI-H460 lung
A498 renal = system: A498 renal
SF-268 CNS = system: SF-268 CNS

With Nc1nc(-c2cccc([N+](=O)[O-])c2)c(N=Nc2ccc([N+](=O)[O-])cc2Cl)s1 the GI50 (MDA-MB-435) was 291 nM, the TGI (MDA-MB-435) was 3.65 µM and the GI50 (SK-OV-3 ovarian) was 160 nM. For the same compound, the TGI (SK-OV-3 ovarian) was 1000 nM, the GI50 (HS 578T breast) was 239 nM and the TGI (HS 578T breast) was 1210 nM. It also gave a GI50 (BT-549 breast) of 206 nM, a TGI (BT-549 breast) of 842 nM and a GI50 (RPMI-8226 leukemia) of 99.6 nM. It also gave a GI50 (UACC-257 melanoma) of 133 nM, a TGI (UACC-257 melanoma) of 1370 nM and a GI50 (IGROV1 ovarian) of 446 nM. It also gave a TGI (IGROV1 ovarian) of 18.5 µM, a GI50 (U251 CNS) of 213 nM and a TGI (U251 CNS) of 1320 nM. For the same compound, the GI50 (MCF7 breast) was 192 nM, the TGI (MCF7 breast) was 1360 nM and the GI50 (EKVX NSCLC) was 260 nM. For the same compound, the TGI (EKVX NSCLC) was 4.2 µM, the GI50 (KM12 colon) was 272 nM and the TGI (KM12 colon) was 3.73 µM. For the same compound, the GI50 (MOLT-4 leukemia) was 266 nM, the TGI (MOLT-4 leukemia) was 2580 nM and the GI50 (TK-10 renal) was 573 nM. It also gave a TGI (TK-10 renal) of 8.87 µM, a GI50 (OVCAR-3 ovarian) of 245 nM and a TGI (OVCAR-3 ovarian) of 12.9 µM. For the same compound, the GI50 (SR leukemia) was 293 nM, the TGI (SR leukemia) was 2940 nM and the GI50 (COLO 205 colon) was 342 nM. The TGI (COLO 205 colon) was 1290 nM, the GI50 (NCI/ADR-RES ovarian) was 254 nM and the TGI (NCI/ADR-RES ovarian) was 2050 nM. It also gave a GI50 (HT29 colon) of 342 nM, a TGI (HT29 colon) of 4.38 µM and a GI50 (SK-MEL-2 melanoma) of 86 nM. For the same compound, the TGI (SK-MEL-2 melanoma) was 401 nM, the GI50 (UO-31 renal) was 236 nM and the TGI (UO-31 renal) was 1380 nM. It also gave a GI50 (SN12C renal) of 261 nM, a TGI (SN12C renal) of 4.57 µM and a GI50 (HL-60(TB) leukemia) of 254 nM. For the same compound, the TGI (HL-60(TB) leukemia) was 1130 nM, the GI50 (OVCAR-4 ovarian) was 274 nM and the TGI (OVCAR-4 ovarian) was greater than 67.4 µM. It also gave a GI50 (HOP-92 NSCLC) of 48.6 nM, a TGI (HOP-92 NSCLC) of 418 nM and a GI50 (SNB-19 CNS) of 311 nM. For the same compound, the TGI (SNB-19 CNS) was 20.8 µM, the GI50 (786-0 renal) was 351 nM and the TGI (786-0 renal) was 7.21 µM. For the same compound, the GI50 (SK-MEL-28 melanoma) was 336 nM, the TGI (SK-MEL-28 melanoma) was 8.14 µM and the GI50 (HCC-2998 colon) was 309 nM. It also gave a TGI (HCC-2998 colon) of 7.42 µM, a GI50 (HCT-15 colon) of 193 nM and a TGI (HCT-15 colon) of 2000 nM. For the same compound, the GI50 (RXF 393 renal) was 251 nM, the TGI (RXF 393 renal) was 704 nM and the GI50 (SF-539 CNS) was 344 nM. For the same compound, the TGI (SF-539 CNS) was 10.4 µM, the GI50 (HOP-62 NSCLC) was 312 nM and the TGI (HOP-62 NSCLC) was 1700 nM. It also gave a GI50 (CAKI-1 renal) of 204 nM, a TGI (CAKI-1 renal) of 1700 nM and a GI50 (PC-3 prostate) of 244 nM. It also gave a TGI (PC-3 prostate) of 7.39 µM, a GI50 (ACHN renal) of 287 nM and a TGI (ACHN renal) of 11.3 µM. For the same compound, the GI50 (DU-145 prostate) was 383 nM, the TGI (DU-145 prostate) was greater than 49.9 µM and the GI50 (SK-MEL-5 melanoma) was 87.7 nM. For the same compound, the TGI (SK-MEL-5 melanoma) was 286 nM, the GI50 (NCI-H23 lung) was 168 nM and the TGI (NCI-H23 lung) was 786 nM. The GI50 (SNB-75 CNS) was 171 nM, the TGI (SNB-75 CNS) was 2280 nM and the GI50 (T-47D breast) was 67.1 nM. For the same compound, the TGI (T-47D breast) was 771 nM, the GI50 (MALME-3M melanoma) was 172 nM and the TGI (MALME-3M melanoma) was 739 nM. For the same compound, the GI50 (K-562 leukemia) was 151 nM, the TGI (K-562 leukemia) was 4.99 µM and the GI50 (OVCAR-5 ovarian) was 535 nM. The TGI (OVCAR-5 ovarian) was 36.4 µM, the GI50 (LOX IMVI melanoma) was 317 nM and the TGI (LOX IMVI melanoma) was 4.61 µM. The GI50 (SW-620 colon) was 325 nM, the TGI (SW-620 colon) was 5.46 µM and the GI50 (SF-295 CNS) was 261 nM. It also gave a TGI (SF-295 CNS) of 1110 nM, a GI50 (M14 melanoma) of 377 nM and a TGI (M14 melanoma) of 6.75 µM. The GI50 (NCI-H226 lung) was 196 nM, the TGI (NCI-H226 lung) was 816 nM and the GI50 (UACC-62 melanoma) was 144 nM. The TGI (UACC-62 melanoma) was 1620 nM, the GI50 (MDA-MB-231 breast) was 289 nM and the TGI (MDA-MB-231 breast) was 1780 nM. It also gave a GI50 (CCRF-CEM leukemia) of 310 nM, a TGI (CCRF-CEM leukemia) of 9.12 µM and a GI50 (OVCAR-8 ovarian) of 308 nM. The TGI (OVCAR-8 ovarian) was 4.46 µM, the GI50 (HCT-116 colon) was 231 nM and the TGI (HCT-116 colon) was 1230 nM. It also gave a GI50 (NCI-H522 lung) of 119 nM, a TGI (NCI-H522 lung) of 2490 nM and a GI50 (A549 NSCLC) of 354 nM. The TGI (A549 NSCLC) was greater than 34.9 µM, the GI50 (NCI-H460 lung) was 243 nM and the TGI (NCI-H460 lung) was 1260 nM. For the same compound, the GI50 (A498 renal) was 270 nM, the TGI (A498 renal) was 737 nM and the GI50 (SF-268 CNS) was 310 nM. The TGI (SF-268 CNS) was greater than 41.4 µM.
